Converted amounts (≈) assume the structure as drawn.
Experiments:
Format in all cases: cell-based
[1] = tested on: TK173 cells; assay: ELISA to detect secreted type I collagen (Pro-Collagen I alpha 1) in conditioned media of TGFβ1-treated TK173 fibroblasts; settings: Homo sapiens, Fibroblast, 10 ng/ml TGFβ1 for 5 days, then compound 48 hours, Pro-Collagen I alpha 1 ELISA of conditioned media, read-out: IC50, concentration where the TGFβ-stimulated collagen secretion is attenuated by 50%
Experimental: (§1) Compound reconstitution. Prior to treatment, each compound was used from a stock solution of a concentration of 10 mg/ml in DMSO. Final concentration of DMSO in cell cultures was kept below 0.1%.
(§2) Cell culture and treatment. The human renal fibroblast cell line TK173 was derived from a normal human kidney (laboratory stock; (G. A. Müller et al., Exp. Nephrol. 1995, 3, 127). Cell line stabilization for research purposes was approved by the Ethics Committee of the Georg-August-University. TK173 cells were cultured in Dulbecco's modified Eagle's medium (DMEM, Gibco, USA) supplemented with 10% fetal bovine serum (FBS, Gibco, Germany) and 1% penicillin-streptomycin (PS, Gibco, USA) at 37° C. in a humidified atmosphere with 5% CO2. Cell line was routinely tested for mycoplasma contamination. To investigate the effect of compounds after profibrotic agent treatment, 3×10^4 TK173 cells were seeded in one well of a 6-well culture plate in normal medium. After 24 hours, the culture medium was removed, and the cells were incubated for a further 24 hours in FBS free culture medium (starvation medium). Then, 10 ng/ml TGFβ1 (R&D Systems, USA) was added to the starvation medium, and the culture medium was changed with fresh TGFβ1 in every alternate day. After 5 days of TGFβ1 treatment, cell culture medium was replaced by starvation medium with compounds at different concentration for following 48 hours of incubation.
Conditioned media containing the secretome of TK173 fibroblast were harvested after 48 hours of compound treatments. Secretion of pro-Collagen 1 was assessed with Human Pro-Collagen I alpha 1 DuoSet ELISA (R&D Systems, USA). To prepare the ELISA plate, Human Pro-Collagen I α1 Capture Antibody was diluted in ELISA Plate-coating Buffer at 4 μg/ml working concentration. 100 μl of diluted Capture Antibody was added to the 96-well microplates and incubated overnight at room temperature. After three times washing with Wash Buffer, microplates were blocked by adding 300 μl of Reagent Diluent for 1 hour at room temperature. To proceed the ELISA, Human Pro-Collagen I α1 Standards were diluted in Reagent Diluent (range between 31.3 pg/ml-2000 pg/ml) and 100 μl of standards or conditioned mediums were add into designated wells. Microplates were incubated at room temperature for 2 hours. Human Pro-Collagen I α1 Detection Antibody was prepared in Reagent Diluent at 100 ng/ml working concentration and 100 μl of diluted Detection Antibody was applied for 2 hours at room temperature after extensive washing. Then, working solution of Streptavidin-HRP with Reagent Diluent was prepared by diluting 1:40 and added into each well. After 20 minutes at room temperature incubation, microplates were washed and applied with 100 μl of Substrate Solution for 20 minutes followed by Stop Solution after washing. Finally, signals were measured at 450 nm absorbance by PHOmo Microplate Reader (Autobio, China). The amount of pro-collagen 1 antibody fusion was quantified by extrapolating the signal into a linear range of a pro-collagen 1 standard curve. Screening compounds were typically tested in at concentrations between 5 and 200 μg/ml. The IC50 values observed by the dose response curves for each compound (n=4-6, two independent experiments) were obtained by nonlinear regression analysis using Prism 9 software (GraphPad, La Jolla, USA) and represent the concentration where the TGFβ-stimulated collagen secretion is attenuated by 50%.

[2] = tested on: TK173 cells; assay: Collagen I mRNA PCR assay (qPCR, normalized to GAPDH) in TGFβ1-treated TK173 fibroblasts; settings: Homo sapiens, Fibroblast, 10 ng/ml TGFβ1 for 5 days, then compound 48 hours
Experimental: as §1, §2
RNA isolation. Total RNA was extracted by the TRIzol reagent (Life technologies, USA) and purified by PureLink RNA Mini Kit (Ambion, USA) according to instructions available from the manufacturer with minor modifications. The samples were stored at −80° C. prior to use. RNA concentrations were measured by NanoDrop Spectrophotometer (ThermoFisher Scientific, USA), and were equilibrated to 100 ng for complementary DNA (cDNA) synthesis.
Quantitative real-time PCR analysis (qPCR). For SYBR Green-based qPCR analysis, cDNA preparation was performed by using DNAse I (Sigma-Aldrich, USA) digestion to remove residual genomic DNA and SuperScript II Reverse Transcriptase kit (Invitrogen, USA) to synthesize cDNA following the manufacturer's detailed instructions. All qPCR reactions were performed using the StepOne Plus Real-Time System (Applied Biosystems, USA) and amplifications were done using the SYBR Green PCR Master Mix (Applied Biosystems, USA). The thermal cycling conditions were initiated to 95° C. for 20 seconds, 40 amplification cycles at 95° C. for 3 seconds and 60° C. for 30 seconds, with one cycle of dissociation at 95° C. for 15 seconds, 60° C. for 60 seconds, and 95° C. for 15 seconds. Three replicates per sample were run in duplicate. The experimental cycle threshold (Ct) values were normalized to those obtained for GAPDH, and the relative gene expression level was determined using the 2_ddCT methods.

[3] = tested on: TK173 cells; assay: Collagen I Western blot in TGFβ1-treated TK173 fibroblasts; settings: Homo sapiens, Fibroblast, 10 ng/ml TGFβ1 for 5 days, then compound 48 hours, Collagen I immunoblot
Experimental: as §1, §2
Protein Extraction. Total proteins were extracted from the cultured cells by NP40 Cell Lysis Buffer (Invitrogen, USA) containing phosphatase (Sigma-Aldrich, USA) and protease inhibitor (Roche, Switzerland) followed by sonication and centrifugation at 12,000×g for 20 minutes at 4° C. to clear the lysates. The supernatant was collected and measured using Pierce BCA Protein Assay Kit (ThermoFisher Scientific) by PHOmo Microplate Reader (Autobio, China). The samples were stored at −80° C. prior to use.
Immunoblotting. Western blot analysis, 10 μg of extracted proteins were diluted in NuPAGE LDS Samples Buffer (Novex Life technologies, USA) containing 5% 2-Mercaptoethanol (Sigma-Aldrich, Germany), and following denatured for 5 minutes at 95° C. The proteins were resolved by 4-12% NuPAGE SDS-PAGE (Novex Life technologies, USA). Blots were often stripped with Thermo Scientific Restore PLUS Western Blot Stripping Buffer (Thermo Fisher Scientific, Germany) for reprobing. The following antibodies were used for immunoblotting: Collagen I (1:1000; ab233080, Abcam, USA), alpha smooth muscle Actin (1:1000; ab124964, Abcam, USA), GAPDH (1:8000; sc-32233, Santa Cruz, USA). Proteins were detected by LumiGLO chemiluminescent system (Cell Signaling Technology, USA) with appropriate secondary antibodies: anti-mouse HRP (1:2500; Dako, Denmark) and anti-rabbit HRP (1:2500; 7074, Cell Signaling Technology, USA) using ChemiDoc MP Imaging System (Bio-Rad, USA).

Compound	IC50 [1] [µg/mL]	IC50 [2] [µg/mL]	IC50 [3] [µg/mL]
c1ccc2c(c1)cnn1nnnc21 [Compound 1, Tetrazolo[5,1-a]phthalazine]	157 (≈ 917 µM)	< 80	< 40
Cc1nnc2c3ccccc3cnn12 [Compound 3, 3-Methyl-1,2,4-triazolo[3,4-a]phthalazine]	96 (≈ 521 µM)	< 20	< 5

From patent US20250215004A1, “AZOLO COMPOUNDS FOR TREATMENT OF FIBROTIC DISEASES” (GEORG-AUGUST-UNIVERSITÄT GÖTTINGEN STIFTUNG ÖFFENTLICHEN …, priority 2022, published 2025)
